Values of other authors, collected in patent US11160882B2, “Indirect chromoendoscopy with an oral indigo carmine base preparation” (priority 2014, dated 2021).

Assays:
[1] = humans (Oravisto K., 1957)
[2] = tested on: colon; details: 100 mg oral powder before the colonic prep
[3] = rat, oral (Lethco et al., 1966)
[4] = tested on: colon; details: 100 mg oral capsule before the colonic prep

O=C1/C(=C2\Nc3ccc(S(=O)(=O)[O-])cc3C2=O)Nc2ccc(S(=O)(=O)[O-])cc21.[Na+].[Na+] [indigo carmine]
clearance of absorbed food colorant from circulation [1]: cleared very rapidly | side effects [2]: No side effects were observed | cases with good effect (staining), left colon ([2]; left colon): 50% | cases with good effect (staining), right colon ([2]; right colon): 80% | toxicity from oral administration (oral administration): no reports of toxicity | daily intake certified by the FDA (use as a food colorant): up to 2 mg/kg | dye taken orally that was absorbed [3]: 3% | cases in which staining of the entire colon was ineffective [4]: over 90%
